Measurements as given in US9322066B2, “Predictors for cancer treatment” (priority 2011, dated 2016).

Tested on: relapsed or refractory, rituximab-naive or -sensitive follicular B-cell NHL
Experiment: Time to progression (TTP), Vc-R vs rituximab study, by biomarker
Format: in vivo, human
Set-up: TTP Median: unit not given here
Description: Non-Hodgkin lymphoma (NHL) encompasses several unique malignant lymphoid disease entities that vary in clinical behavior, morphologic appearance, immunologic, and molecular phenotype. […] A randomized, open-label, active-controlled, multicenter, multinational, prospective study to compare the efficacy and safety of the combination of bortezomib and rituximab (Vc-R) to single-agent rituximab in subjects who have relapsed or refractory, rituximab-naive or -sensitive follicular B-cell NHL was performed.
Subjects were centrally randomized to Treatment Groups A (Vc-R) or B (rituximab) in a 1:1 ratio taking into account the following stratification factors: • Follicular Lymphoma International Prognostic Index (FLIPI) score (low [0 or 1 factor], intermediate [2 factors], high [≧3 factors]); • Prior rituximab therapy (yes, no); • Time since last dose of anti-lymphoma therapy (≦1 year, >1 year); • Region (United States/Canada, European Union, Rest of World).
For single-marker association analyses and pair-wise comparisons, a log rank test and Cox proportional hazard model was utilized for assessments of PFS, TTP, and OS between the treatment groups. Kaplan-Meier curves were utilized to estimate the distribution differences between groups in the time-to-event analyses. Comparison of the response rates between the treatment groups was conducted using the Fishers exact test. Single-marker association analyses were stratified by the covariates.
For pair-wise comparison analysis, biomarker pairs were formed by combinations of two markers. A log rank test was utilized for assessments of PFS, TTP, and OS between the treatment groups in the subpopulation defined by biomarker pairs. Kaplan-Meier curves were utilized to estimate the distribution differences between groups in the time-to-event analyses. Comparison of the response rates between the treatment groups was conducted using the Fishers exact test. Methods of Analysis for the multiple biomarker comparison models can be found in section 4.6.

[1] = 20S % NUCLEAR STAINING: 30-50, 2 Prior Lines of Therapy
[2] = 20S % NUCLEAR STAINING: 60-70, Male
[3] = 20S % POSITIVE CYTOPLASMIC SIGNAL: 0-20, >65 years old
[4] = 20S % POSITIVE CYTOPLASMIC SIGNAL: 95-100, Ann Arbor Stage IV
[5] = 20S INTENSITY CYTOPLASMIC SIGNAL: ≧3+, Male
[6] = CD68 OVERALL POSITIVE: 0-25, 2 Prior Lines of Therapy
[7] = CD68 OVERALL POSITIVE: 0-25, ≦1 year since last anti-lymphoma treatment
[8] = CD68 OVERALL POSITIVE: 26-50, Ann Arbor Stage IV
[9] = CD68 OVERALL POSITIVE: 26-50, High FLIPI Score
[10] = CD68 OVERALL POSITIVE: 26-50, No High Tumor Burden
[11] = CD68 OVERALL POSITIVE: 26-50, Rest of World
[12] = CD68 OVERALL POSITIVE: 26-50, ≦65 years old
[13] = CD68 POSITIVE FOLLICULAR: 0-25, >1 year since last anti-lymphoma treatment
[14] = CD68 POSITIVE FOLLICULAR: 26-50, 1 Prior Line of Therapy
[15] = CD68 POSITIVE FOLLICULAR: 26-50, High FLIPI Score
[16] = CD68 POSITIVE FOLLICULAR: 26-50, No High Tumor Burden
[17] = CD68 POSITIVE FOLLICULAR: 26-50, No Subgroup
[18] = CD68 POSITIVE FOLLICULAR: 26-50, White
[19] = CD68 POSITIVE FOLLICULAR: 26-50, ≦65 years old
[20] = CD68 POSITIVE FOLLICULAR: 51-75, Female
[21] = CD68 POSITIVE PERIFOLLICULAR: 0-25, 2 Prior Lines of Therapy
[22] = CD68 POSITIVE PERIFOLLICULAR: 26-50, Male
[23] = CD68 POSITIVE PERIFOLLICULAR: 26-50, Other
[24] = CD68 POSITIVE PERIFOLLICULAR: >75, 1 Prior Line of Therapy
[25] = CD68 POSITIVE PERIFOLLICULAR: >75, ≦65 years old
[26] = P27 % NUCLEI POSITIVE: 30-50, Ann Arbor Stage IV
[27] = P27 % NUCLEI POSITIVE: 60-70, Intermediate FLIPI Score
[28] = P27 SIGNAL INTENSITY: ≧2+, 4 Prior Lines of Therapy
[29] = P27 SIGNAL INTENSITY: ≧2+, Ann Arbor Stage IV
[30] = P27 SIGNAL INTENSITY: ≧2+, Male
[31] = P27 SIGNAL INTENSITY: ≧2+, ≦65 years old
[32] = P65 % NUCLEAR STAINING: 0, Male
[33] = P65 % NUCLEAR STAINING: 0, No Prior Rituximab Therapy
[34] = P65 % NUCLEAR STAINING: 0, ≦65 years old
[35] = P65 % POSITIVE CYTOPLASMIC SIGNAL: >90%, 1 Prior Line of Therapy
[36] = P65 % POSITIVE CYTOPLASMIC SIGNAL: >90%, >1 year since last anti-lymphoma treatment
[37] = P65 % POSITIVE CYTOPLASMIC SIGNAL: >90%, Ann Arbor Stage IV
[38] = P65 % POSITIVE CYTOPLASMIC SIGNAL: >90%, High FLIPI Score
[39] = P65 % POSITIVE CYTOPLASMIC SIGNAL: >90%, Male
[40] = P65 % POSITIVE CYTOPLASMIC SIGNAL: >90%, No Prior Rituximab Therapy
[41] = P65 % POSITIVE CYTOPLASMIC SIGNAL: >90%, No Subgroup
[42] = P65 % POSITIVE CYTOPLASMIC SIGNAL: >90%, White
[43] = P65 % POSITIVE CYTOPLASMIC SIGNAL: >90%, ≦65 years old
[44] = P65 % POSITIVE CYTOPLASMIC SIGNAL: ≦90%, Intermediate FLIPI Score
[45] = P65 INTENSITY CYTOPLASMIC SIGNAL: ≦1+, Ann Arbor Stage III
[46] = P65 INTENSITY CYTOPLASMIC SIGNAL: ≧2+, High FLIPI Score
[47] = P65 INTENSITY CYTOPLASMIC SIGNAL: ≧2+, ≦65 years old
[48] = PSMB1/A171S: G/G, Ann Arbor Stage IV, IRC review
[49] = PSMB1/A171S: G/G, High Tumor Burden, IRC review

## rituximab
[1]
  TTP Evt/N: 11/13
  TTP Median: 239
[2]
  TTP Evt/N: 13/16
  TTP Median: 212
[3]
  TTP Evt/N: 5/6
  TTP Median: 278
[4]
  TTP Evt/N: 43/56
  TTP Median: 278
[5]
  TTP Evt/N: 20/27
  TTP Median: 280
[6]
  TTP Evt/N: 6/8
  TTP Median: 142
[7]
  TTP Evt/N: 11/18
  TTP Median: 424
[8]
  TTP Evt/N: 44/56
  TTP Median: 277
[9]
  TTP Evt/N: 36/45
  TTP Median: 277
[10]
  TTP Evt/N: 37/54
  TTP Median: 357
[11]
  TTP Evt/N: 40/51
  TTP Median: 277
[12]
  TTP Evt/N: 57/77
  TTP Median: 278
[13]
  TTP Evt/N: 23/34
  TTP Median: 357
[14]
  TTP Evt/N: 26/39
  TTP Median: 349
[15]
  TTP Evt/N: 31/37
  TTP Median: 205
[16]
  TTP Evt/N: 29/44
  TTP Median: 351
[17]
  TTP Evt/N: 65/91
  TTP Median: 277
[18]
  TTP Evt/N: 53/77
  TTP Median: 334
[19]
  TTP Evt/N: 52/67
  TTP Median: 270
CD68 POSITIVE FOLLICULAR: 51-75, 3 Prior Lines of Therapy
  TTP Evt/N: 1/4
[20]
  TTP Evt/N: 14/26
  TTP Median: 708
[21]
  TTP Evt/N: 7/8
  TTP Median: 70
[22]
  TTP Evt/N: 22/30
  TTP Median: 239
[23]
  TTP Evt/N: 4/4
  TTP Median: 128
[24]
  TTP Evt/N: 13/18
  TTP Median: 275
[25]
  TTP Evt/N: 17/23
  TTP Median: 275
[26]
  TTP Evt/N: 15/19
  TTP Median: 278
[27]
  TTP Evt/N: 6/13
  TTP Median: 513
[28]
  TTP Evt/N: 9/15
  TTP Median: 348
[29]
  TTP Evt/N: 64/85
  TTP Median: 283
[30]
  TTP Evt/N: 52/72
  TTP Median: 280
[31]
  TTP Evt/N: 104/153
  TTP Median: 281
[32]
  TTP Evt/N: 56/74
  TTP Median: 280
[33]
  TTP Evt/N: 77/102
  TTP Median: 322
[34]
  TTP Evt/N: 97/138
  TTP Median: 287
[35]
  TTP Evt/N: 56/89
  TTP Median: 349
[36]
  TTP Evt/N: 77/117
  TTP Median: 357
[37]
  TTP Evt/N: 67/87
  TTP Median: 275
[38]
  TTP Evt/N: 61/83
  TTP Median: 239
[39]
  TTP Evt/N: 54/72
  TTP Median: 271
[40]
  TTP Evt/N: 80/112
  TTP Median: 345
[41]
  TTP Evt/N: 139/204
  TTP Median: 334
[42]
  TTP Evt/N: 119/179
  TTP Median: 345
[43]
  TTP Evt/N: 108/154
  TTP Median: 278
[44]
  TTP Evt/N: 5/16
  TTP Median: 567
[45]
  TTP Evt/N: 7/11
  TTP Median: 204
[46]
  TTP Evt/N: 60/80
  TTP Median: 275
[47]
  TTP Evt/N: 105/152
  TTP Median: 287
[48]
  TTP Evt/N: 95/127
  TTP Median: 278
[49]
  TTP Evt/N: 110/147
  TTP Median: 273
PSMB1/A171S: G/G, ≦65 years old, IRC review
  TTP Evt/N: 131/198
